According to patent publication US11072605B2, “Crystalline brexpiprazole” (Hexal Aktiengesellschaft, priority 2017, dated 2021):

Assay: Particle size distribution by laser diffraction (Malvern Mastersizer 3000)
Format: physicochemical
Details: aqueous suspension, after ultrasonification
Method: For the purpose of this invention, particle size distribution (PSD) is determined as the percent volume at each particle size and measured by a laser diffraction method in the context of a circulating aqueous suspension.
A Malvern Mastersizer 3000 laser diffraction analyzer equipped with a Hydro EV measurement cell was used. About 50 mg of sample were filled into a 15 ml glass test tube. The sample was wetted with two drops of Tween 80 and vortexed. Then the thoroughly wetted sample was dispersed in about 7 mL of UHQ-water by vortexing until the particles were dispersed. The suspension was treated for 7 minutes in an ultrasonification bath at RT (Elma S50H). The well dispersed suspension was then measured in water by adding a sample from the center of the test tube containing the well dispersed suspension to a water-filled dispersion unit prefilled with 70 mL of water. The sample in the 70 mL dispersion unit was kept under stirring at 2000 rpm. More sample from the test tube was added, until a targeted obscuration range of 10-25 percent was achieved. The Malvern Mastersizer was operated using the following parameters:
Particle size distribution was measured with a Malvern Mastersizer 3000 laser diffraction analyzer equipped with a Hydro EV measurement cell. About 50 mg of sample were given into a test tube. The sample was wetted with two drops of Tween 80 and dispersed in about 7 ml of water on a Vortexer. The suspension was treated for 7 minutes in a ultrasonification bath (Elma S50H). The well dispersed suspension was afterwards measured in water at a targeted obscuration range of 10-25 percent while circulating the aqueous suspension and stirring the suspension reservoir at 2000 rpm after a waiting period of three minutes. A fraunhofer optical model was utilized to deconvolute the sample scattering patterns to yield the resultant particle size distributions. Analysis model: General purpose/normal sensitivity. Measuring/background time: about 10 sec

| SMILES | d(10) (volume distribution) | d(50) (volume distribution) [μm] | d(90) (volume distribution) | d(4,3) volume mean diameter |
| --- | --- | --- | --- | --- |
| O=c1ccc2ccc(OCCCCN3CCN(c4cccc5sccc45)CC3)cc2[nH]1 [Compound I, 7-[4-[4-(1-Benzothiophen-4-yl)piperazin-1-yl]butoxy]quinolin-2(1H)-one, reference compound] | 0.8 μm | 3 | 10.8 μm |  |
| O=c1ccc2ccc(OCCCCN3CCN(c4cccc5sccc45)CC3)cc2[nH]1 [(ii)] | D(10): 1.3 μm |  | D(90); 79 μm | D(4.3): 30 μm |
| O=c1ccc2ccc(OCCCCN3CCN(c4cccc5sccc45)CC3)cc2[nH]1 [(i)] | D(10): 1.5 μm |  | D(90): 42 μm | D(4.3): 19 μm |
